Legend:
[1] = system: HCT-116 (colon cancer) cell line; experiment: MTT cell viability assay, HCT-116; assay type: cell-based, human; conditions: for IC50: MTT, 72 h, 1-100 µM, mean ± SD
Experimental: (§1) Compounds 6–49 were evaluated in vitro for their effects on the viability of the three human cancer cell lines: HCT-116 (colon cancer), MCF-7 (breast cancer) and HeLa (cervical cancer) as well as the non-cancerous keratinocyte cell line (HaCaT). The concentration required for 50% inhibition of cell viability IC50 was calculated and compared with the reference drug cisplatin, the results are shown in Table 1.
(§2) Cell lines: colon cancer (HCT-116), breast cancer (MCF-7), cervical cancer (HeLa), the human keratinocyte cell line (HaCaT); NT—not tested; IC50 was measured at concentrations 1, 10, 25, 50, and 100 µM. IC50 values are expressed as the mean ± SD of at last three independent experiments.
(§3) All chemicals, if not stated otherwise, were obtained from Sigma–Aldrich (St. Louis, MO, USA). The HCT-116 cell lines was purchased from ATCC (ATCC-No: CCL-247), while the MCF-7, HeLa and HaCaT cell lines were purchased from Cell Lines Services (Eppelheim, Germany). Cells were cultured in Dulbecco’s modified Eagle’s medium (DMEM) supplemented with 10% fetal bovine serum, 2 mM glutamine, 100 units/mL penicillin, and 100 µg/mL streptomycin. Cultures were maintained in a humidified atmosphere with 5% carbon dioxide at 37 °C in an incubator (Heraceus, HeraCell).
(§4) Cell viability was examined using the MTT (3-(4,5-dimethylthiazol-2-yl)-2,5-diphenyltetrazolium bromide) assay. Cells were seeded in 96-well plates at a density of 5 × 10^3 cells/well and treated for 72 h with the tested compounds in the concentration range of 1–100 µM (1, 10, 25, 50 and 100 µM). Then, MTT (0.5 mg/mL) was added to the medium and cells were further incubated for 2 h at 37 °C. In the next stage, cells were lysed with DMSO and the absorbance of the formazan solution was measured at 550 nm with a plate reader (1420 multilabel counter, Victor, Jügesheim, Germany). The experiment was performed in triplicate. Values are expressed as the mean ± SD of at least three independent experiments. Cisplatin was used as a positive control.

[2] = system: MCF-7 (breast cancer) cell line; experiment: MTT cell viability assay, MCF-7; assay type: cell-based, human; conditions: for IC50: MTT, 72 h, 1-100 µM, mean ± SD
Experimental: as §1, §2, §3, §4

[3] = system: HeLa (cervical cancer) cell line; experiment: MTT cell viability assay, HeLa; assay type: cell-based, human; conditions: 72 h, MTT, 1-100 µM, mean ± SD
Experimental: as §1, §2, §3, §4

[4] = system: HaCaT (non-cancerous keratinocyte cell line); experiment: MTT cell viability assay, HaCaT; assay type: cell-based; conditions: Homo sapiens, 72 h, 1-100 µM, mean ± SD, non-cancerous cells
Experimental: as §1, §2, §3, §4

[5] = system: HCT-116, MCF-7 and HeLa cell lines; experiment: MTT cell viability assay, all tested cancer cell lines taken together; assay type: cell-based; conditions: Homo sapiens; range over HCT-116, MCF-7 and HeLa; read-out: IC50 toward all of the tested cell lines (range over the lines)
Experimental: as §1, §2, §3, §4

Row | IC50 ([1]; Homo sapiens, HCT-116, 72 h) | IC50 ([2]; Homo sapiens, MCF7, 72 h) | IC50 [2] | IC50 ([3]; Homo sapiens, HeLa) | IC50 [5] | IC50 [1] | IC50 [3] | SMILES | IC50 [4] | selectivity ratio HaCaT/HCT-116 ([1]; ratio of IC50 values) | selectivity ratio HaCaT/MCF-7 ([2]; ratio of IC50 values)
1 | 42 ± 2 µM | > 100 µM | 82 ± 3 µM | 61 ± 2 µM | 42 to 82 µM |  |  | Cc1cc(S(=O)(=O)N=c2[nH]c3ccccc3[nH]2)c(SCc2nc(N)nc(N3CCN(C)CC3)n2)cc1Cl [Compound 18, 2-{[4-Amino-6-(4-methylpiperazin-1-yl)-1,3,5-triazin-2-yl]metylthio}-N-(1H-benzo[d]imidazol-2(3H)-ylidene)-4-chloro-5-methylbenzenesulfonamide] | 84 ± 3 µM |  | 
2 | 7 to 11 µM | 17 to 19 µM | 15 ± 1 µM | 11 to 18 µM | 7 to 19 µM | 7 ± 0.1 µM | 18 ± 1 µM | Cc1cc(S(=O)(=O)N=c2[nH]c3ccc(Cl)cc3[nH]2)c(SCc2nc(N)nc(N3CCN(c4ccc(F)cc4)CC3)n2)cc1Cl [Compound 46, 2-[{4-Amino-6-[4-(4-fluorophenyl)piperazin-1-yl]-1,3,5-triazin-2-yl}metylthio]-4-chloro-N-(5-chloro-1H-benzo[d]imidazol-2(3H)-ylidene)-5-methylbenzenesulfonamide] | 28 ± 1 µM | 4 | 2
3 |  | > 100 µM | 137 ± 3 µM |  | 137 to 280 µM |  |  | Cc1cc(S(=O)(=O)N=c2[nH]c3ccccc3[nH]2)c(SCc2nc(N)nc(N3CCN(S(=O)(=O)c4ccccc4)CC3)n2)cc1Cl [Compound 32, 2-[{4-Amino-6-[4-(phenylsulfonyl)piperazin-1-yl]-1,3,5-triazin-2-yl}methylthio]-N-(1H-benzo[d]imidazol-2(3H)-ylidene)-4-chloro-5-methylbenzenesulfonamide] |  |  | 
4 | 16 ± 0.5 µM | 17 ± 0.5 µM |  | 17 ± 1 µM | 7 to 19 µM |  |  | Cc1cc(S(=O)(=O)N=c2[nH]c3ccccc3[nH]2)c(SCc2nc(N)nc(N3CCN(c4ccc(F)cc4)CC3)n2)cc1Cl [Compound 20, 2-[{4-Amino-6-[4-(4-fluorophenyl)piperazin-1-yl]-1,3,5-triazin-2-yl}methylthio]-N-(1H-benzo[d]imidazol-2(3H)-ylidene)-4-chloro-5-methylbenzenesulfonamide] | 35 ± 1 µM |  | 
5 | 25 ± 1 µM | 20 ± 1 µM |  | 23 ± 1 µM | 17 to 30 µM |  |  | Cc1cc(S(=O)(=O)N=c2[nH]c3ccccc3[nH]2)c(SCc2nc(N)nc(N3CCc4ccccc43)n2)cc1Cl [Compound 9, 2-{[4-Amino-6-(indolin-1-yl)-1,3,5-triazin-2-yl]metylthio}-N-(1H-benzo[d]imidazol-2(3H)-ylidene)-4-chloro-5-methylbenzenesulfonamide] | 42 ± 2 µM |  | 
6 | 16 ± 0.5 µM | 17 ± 0.5 µM |  | 17 ± 1 µM | 7 to 19 µM |  |  | Cc1cc(S(=O)(=O)N=c2[nH]c3ccccc3[nH]2)c(SCc2nc(N)nc(N3CCN(c4ccc(Cl)cc4)CC3)n2)cc1Cl [Compound 23, 2-[{4-Amino-6-[4-(4-chlorophenyl)piperazin-1-yl]-1,3,5-triazin-2-yl}methylthio]-N-(1H-benzo[d]imidazol-2(3H)-ylidene)-4-chloro-5-methylbenzenesulfonamide] | 35 ± 1 µM |  | 
7 | 18 ± 1 µM | 23 ± 1 µM |  | 24 ± 1 µM | 17 to 30 µM |  |  | Cc1cc(S(=O)(=O)N=c2[nH]c3ccc(Cl)cc3[nH]2)c(SCc2nc(N)nc(Nc3ccccc3)n2)cc1Cl [Compound 42, 2-{[4-Amino-6-(phenylamino)-1,3,5-triazin-2-yl]methylthio}-4-chloro-N-(5-chloro-1H-benzo[d]imidazol-2(3H)-ylidene)-5-methylbenzenesulfonamide] | 37 ± 1 µM |  | 
8 | 15 ± 1 µM | 19 ± 1 µM |  | 18 ± 1 µM | 7 to 19 µM |  |  | Cc1cc(S(=O)(=O)N=c2[nH]c3ccccc3[nH]2)c(SCc2nc(N)nc(N3CCN(c4ccccc4)CC3)n2)cc1Cl [Compound 19, 2-{[4-Amino-6-(4-phenylpiperazin-1-yl)-1,3,5-triazin-2-yl]methylthio}-N-(1H-benzo[d]imidazol-2(3H)-ylidene)-4-chloro-5-methylbenzenesulfonamide] | 31 ± 1 µM |  | 
9 | 17 ± 1 µM | 25 ± 1 µM |  | 30 ± 1 µM | 17 to 30 µM |  |  | Cc1cc(S(=O)(=O)N=c2[nH]c3ccc(F)cc3[nH]2)c(SCc2nc(N)nc(N3CCc4ccccc43)n2)cc1Cl [Compound 34, 2-{[4-Amino-6-(indolin-1-yl)-1,3,5-triazin-2-yl]metylthio}-4-chloro-N-(5-fluoro-1H-benzo[d]imidazol-2(3H)-ylidene)-5-methylbenzenesulfonamide] | 41 ± 1 µM |  | 
